Several values for one entry are separate records, joined by “and”; a condition that tells them apart may be missing. Equal entries are not always repeated.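 48-hour exposure; five concentrations; linearly interpolated endpoints. GI50 is the concentration that inhibits growth by half. At the TGI there is no net growth.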
Tests used:
Assay in all cases: NCI-60 cell line screen, 48 h
[1] = test system: K-562 leukemia
[2] = test system: OVCAR-8 ovarian
[3] = test system: SK-OV-3 ovarian
[4] = test system: KM12 colon
[5] = test system: HCT-15 colon
[6] = test system: SF-295 CNS
[7] = test system: UACC-257 melanoma
[8] = test system: U251 CNS
[9] = test system: HOP-92 NSCLC
[10] = test system: CCRF-CEM leukemia

Molecule `CCOC(=O)c1cc(/C=C/C(C)=C/C(=O)OC)n(C)c1C` has a TGI [1] of over 100 µM, a TGI [2] of over 100 µM and a TGI [3] of over 100 µM. For the same molecule, the TGI [4] was over 100 µM, the TGI [5] was over 100 µM and the TGI [6] was over 100 µM. It also gave a TGI [7] of over 100 µM, a TGI [8] of over 100 µM and a TGI [9] of over 100 µM. For the same molecule, the TGI [10] was over 100 µM.

`O=[N+]([O-])c1ccc2c(c1)[O][Sn][O]2` gave a GI50 [1] of 40.2 µg/mL, a TGI [1] of over 150 µg/mL and a GI50 [2] of 65.7 µg/mL. It also gave a TGI [2] of over 150 µg/mL, a GI50 [3] of over 150 µg/mL and a TGI [3] of over 150 µg/mL. The GI50 [4] was 37.6 µg/mL, the TGI [4] was over 150 µg/mL and the GI50 [5] was 16.8 µg/mL. For the same molecule, the TGI [5] was over 150 µg/mL, the GI50 [6] was over 150 µg/mL and the TGI [6] was over 150 µg/mL. The GI50 [7] was 40.5 µg/mL, the TGI [7] was over 150 µg/mL and the GI50 [8] was over 150 µg/mL. For the same molecule, the TGI [8] was over 150 µg/mL, the GI50 [9] was 45.3 µg/mL and the TGI [9] was 88.3 µg/mL. It also gave a GI50 [10] of 17.6 µg/mL and a TGI [10] of over 150 µg/mL.

Molecule `COC(=O)c1nc(N)[nH]c(=O)c1CCCCCc1c(C(=O)OC)nc(N)[nH]c1=O` has a TGI [1] of over 50 µM, a TGI [2] of over 50 µM and a TGI [3] of over 50 µM. For the same molecule, the TGI [4] was over 50 µM, the TGI [5] was over 50 µM and the TGI [6] was over 50 µM. It also gave a TGI [7] of over 50 µM, a TGI [8] of over 50 µM and a TGI [9] of over 50 µM. For the same molecule, the TGI [10] was over 50 µM.

In the case of `CN[C@@H]1C[C@H]2O[C@@](C)([C@@H]1OC)n1c3ccccc3c3c4c(c5c6ccccc6n2c5c31)C(=O)N[C@@H]4O`, the GI50 [1] is reported as 0.162 µM, the GI50 [2] is reported as 0.0354 µM and the TGI [2] is reported as 0.164 µM and 0.719 µM. The GI50 [3] was 0.0467 µM, the TGI [3] was 0.187 µM and 0.28 µM and the GI50 [4] was 0.0185 µM. The GI50 [5] was 0.0556 µM, the TGI [5] was 0.3 µM and 1.33 µM and the GI50 [6] was 0.0367 µM. For the same molecule, the TGI [6] was 0.3 µM and 0.204 µM, the GI50 [7] was 0.0848 µM and the TGI [7] was 0.3 µM and 1.9 µM. For the same molecule, the TGI [8] was 0.3 µM and 0.333 µM, the GI50 [9] was under 0.0205 µM and the TGI [10] was 1.39 µM.

`Cc1cc(N/N=C/c2nc(-c3ccc(Cl)cc3)oc2C)c2cc(Cl)ccc2n1` showed a GI50 [1] of 0.571 µM, a TGI [1] of 2.56 µM and a GI50 [2] of 2.05 µM. The TGI [2] was 5.06 µM, the GI50 [3] was 3.54 µM and the TGI [3] was 12.8 µM. The GI50 [4] was 1.97 µM, the TGI [4] was 4.6 µM and the GI50 [5] was 1.68 µM. The TGI [5] was 3.66 µM, the GI50 [6] was 10.2 µM and the TGI [6] was 22.6 µM. For the same molecule, the GI50 [7] was 1.93 µM, the TGI [7] was 4.52 µM and the GI50 [8] was 1.78 µM. It also gave a TGI [8] of 3.37 µM, a GI50 [9] of 3.53 µM and a TGI [9] of 16.6 µM. It also gave a GI50 [10] of 1.59 µM and a TGI [10] of 7.18 µM.

`CCOC(=O)CC1NC(=O)CS1` (stereo not given) gave a TGI [1] of over 100 µM, a TGI [2] of over 100 µM and a TGI [3] of over 100 µM. The TGI [4] was over 100 µM, the TGI [5] was 45.1 µM and the TGI [6] was over 100 µM. It also gave a TGI [7] of over 100 µM, a TGI [8] of over 100 µM and a TGI [9] of over 100 µM. The TGI [10] was over 100 µM.

`CC1(C)C2CCC3(C2)CS(=O)(=O)N2OC231` (stereo not given) gave a TGI [1] of 54.6 µM, a TGI [2] of 67.2 µM and a TGI [3] of over 100 µM. For the same molecule, the TGI [4] was 41.9 µM, the TGI [5] was 30.1 µM and the TGI [6] was over 100 µM. It also gave a TGI [7] of 33.1 µM, a TGI [8] of over 100 µM and a TGI [9] of 25.2 µM. It also gave a TGI [10] of over 100 µM.

Work on `Cc1ccc(S(=O)(=O)N=Nc2c(O)[nH]c3c(Cl)cc(Cl)cc23)cc1` yielded a TGI [1] of over 100 µM, a TGI [2] of over 100 µM and a TGI [3] of over 100 µM. The TGI [4] was over 100 µM, the TGI [5] was over 100 µM and the TGI [6] was over 100 µM. It also gave a TGI [7] of over 100 µM, a TGI [8] of over 100 µM and a TGI [9] of over 100 µM. The TGI [10] was over 100 µM.

With `CN=C1SC(=Nc2ccc(N(C)C)cc2)N1C` the TGI [1] was over 100 µM, the TGI [2] was over 100 µM and the TGI [3] was 67 µM. It also gave a TGI [4] of over 100 µM, a TGI [5] of over 100 µM and a TGI [6] of over 100 µM. For the same molecule, the TGI [7] was over 100 µM, the TGI [8] was over 100 µM and the TGI [9] was 53.5 µM. For the same molecule, the TGI [10] was over 100 µM.

`CN(C)C(=O)O[C@@H]1CN[C@@H](C#Cc2cc3ncnc(Nc4ccc(OCc5cccc(F)c5)c(Cl)c4)c3s2)C1` gave a GI50 [1] of over 25 µM, a TGI [1] of over 25 µM and a GI50 [2] of 18.7 µM. For the same molecule, the TGI [2] was over 25 µM, the GI50 [3] was 0.406 µM and the TGI [3] was over 25 µM. For the same molecule, the GI50 [4] was 9.85 µM, the TGI [4] was over 25 µM and the GI50 [5] was over 25 µM. It also gave a TGI [5] of over 25 µM, a GI50 [6] of over 25 µM and a TGI [6] of over 25 µM. It also gave a GI50 [7] of over 25 µM, a TGI [7] of over 25 µM and a GI50 [8] of over 21.2 µM. For the same molecule, the TGI [8] was over 25 µM, the GI50 [9] was 6.5 µM and the TGI [9] was over 25 µM. The GI50 [10] was 2.78 µM and the TGI [10] was over 25 µM.

`COC(=O)c1c(-c2ccccc2)sc(-c2cccc3ccccc23)c1C(=O)OC` showed a TGI [1] of over 100 µM, a TGI [2] of over 100 µM and a TGI [3] of over 100 µM. For the same molecule, the TGI [4] was over 100 µM, the TGI [5] was over 100 µM and the TGI [6] was over 100 µM. The TGI [7] was over 100 µM, the TGI [8] was over 100 µM and the TGI [9] was over 100 µM. The TGI [10] was over 100 µM.

`CNC(=S)N/N=C/c1ccc([N+](=O)[O-])s1` was tested, and the TGI [1] was over 10 µM, the TGI [2] was over 10 µM and the TGI [3] was over 10 µM. The TGI [4] was over 10 µM, the TGI [5] was over 10 µM and the TGI [6] was over 10 µM. The TGI [7] was over 10 µM, the TGI [8] was over 10 µM and the TGI [9] was over 10 µM. For the same molecule, the TGI [10] was over 10 µM.

In the case of `COc1cc(Cn2c(-c3nonc3N)nc3ccccc32)ccc1C`, the GI50 [1] is reported as 0.375 µM, the TGI [1] is reported as over 100 µM and the GI50 [2] is reported as 0.729 µM. For the same molecule, the TGI [2] was over 100 µM, the GI50 [3] was 0.493 µM and the TGI [3] was 32 µM. The GI50 [4] was 0.468 µM, the TGI [4] was over 100 µM and the GI50 [5] was 0.427 µM. The TGI [5] was over 100 µM, the GI50 [6] was 0.34 µM and the TGI [6] was 5.63 µM. It also gave a GI50 [7] of 0.419 µM, a TGI [7] of over 100 µM and a GI50 [8] of 0.501 µM. It also gave a TGI [8] of 15.6 µM, a GI50 [9] of 0.566 µM and a TGI [9] of 30 µM. It also gave a GI50 [10] of 0.403 µM and a TGI [10] of over 100 µM.

`CCOc1ccccc1NC(=O)CCc1nc(=S)[nH][nH]1` was tested, and the TGI [1] was over 100 µM, the TGI [2] was over 100 µM and the TGI [3] was over 100 µM. For the same molecule, the TGI [4] was over 100 µM, the TGI [5] was over 100 µM and the TGI [6] was over 100 µM. The TGI [7] was over 100 µM, the TGI [8] was over 100 µM and the TGI [9] was over 100 µM. For the same molecule, the TGI [10] was over 100 µM.

`CCN(CC)CCCC(C)Nc1c2ccc(C)cc2nc2ccc(OC)cc12` (stereo not given) gave a GI50 [1] of 2.92 µM, a TGI [1] of 10.6 µM and a GI50 [2] of 0.521 µM. It also gave a TGI [2] of 3.53 µM, a GI50 [3] of 2.42 µM and a TGI [3] of 15.7 µM. It also gave a GI50 [4] of 1.39 µM, a TGI [4] of 9.19 µM and a GI50 [5] of 2.32 µM. It also gave a TGI [5] of 13.1 µM, a GI50 [6] of 1.47 µM and a TGI [6] of 4.89 µM. For the same molecule, the GI50 [7] was 1.62 µM, the TGI [7] was 3.05 µM and the GI50 [8] was 1.35 µM. It also gave a TGI [8] of 4.45 µM, a GI50 [9] of 0.885 µM and a TGI [9] of 5.1 µM. The GI50 [10] was 1.82 µM and the TGI [10] was 9.9 µM.

With `O=C1CC(=O)OC(c2ccc([N+](=O)[O-])cc2)O1` the GI50 [1] was 2.56 µM, the TGI [1] was over 100 µM and the GI50 [2] was 2.42 µM. The TGI [2] was 7.83 µM, the GI50 [3] was 7.05 µM and the TGI [3] was 19.2 µM. It also gave a GI50 [4] of 1.95 µM, a TGI [4] of 4.03 µM and a GI50 [5] of 2.25 µM. It also gave a TGI [5] of 7.15 µM, a GI50 [6] of 4.85 µM and a TGI [6] of 14 µM. It also gave a GI50 [7] of 1.66 µM, a TGI [7] of 3.36 µM and a GI50 [8] of 1.61 µM. For the same molecule, the TGI [8] was 3.11 µM, the GI50 [9] was 0.23 µM and the TGI [9] was 3.71 µM. The GI50 [10] was 2.45 µM and the TGI [10] was 8.79 µM.

From PubChem BioAssay (NCI)
